Results published in patent US12102085B2, “Insecticidal active mixtures comprising carboxamide compound” (priority 2013, dated 2024).

Key:
Format in all cases: in vivo
[1] = system: vetch aphid (Megoura viciae); assay: Test B.1 Control of vetch aphid, sprayed broad bean leaf disks in 24-well microtiter plates; conditions: 5 days, aphid mortality and fecundity
Protocol: For evaluating control of vetch aphid (Megoura viciae) through contact or systemic means the test unit consisted of 24-well-microtiter plates containing broad bean leaf disks.
The compounds or mixtures were formulated using a solution containing 75% (v/v) water and 25% (v/v) DMSO. Different concentrations of formulated compounds or mixtures were sprayed onto the leaf disks at 2.5 μl, using a custom built micro atomizer, at two replications.
(§1) For the experimental mixtures in this test identical volumes of both mixing partners at the desired concentrations respectively, were mixed together.
After application, the leaf disks were air-dried and 5-8 adult aphids placed on the leaf disks inside the microtiter plate wells. The aphids were then allowed to suck on the treated leaf disks and incubated at 23±1° C., 50±5% RH for 5 days.
Aphid mortality and fecundity was then visually assessed.

[2] = system: Southern Green Stink Bug (Nezara viridula); assay: Test B.6 Control of Southern Green Stink Bug, dipped green beans and dipped insects; conditions: for Average Control % [observed mortality]: Nezara viridula 4th instar, 5 ppm, after 5 days
Protocol: The compounds and respective mixtures were formulated using a solution containing 50:50 water:acetone with 0.01 wt % Kinetic®. Whole Green Beans were rinsed in a 1% bleach solution, triple rinsed with DI water, and allowed to air dry at least 30 minutes in the fume hood. They were dipped in treatment solutions for approximately 5 seconds and allowed to air dry for another 30 minutes in the fume hood. For maximum exposure, Southern Green Stink Bugs (SGSB, 4th instar) were dipped in treatment solution for approximately 3 seconds and allowed to air dry in a cup lined with filter paper and closed with a vented lid for approximately 10 minutes in the fume hood. Three beans were placed in cups with a dry filter paper in the bottom and a portion cup with a cotton wick for water (=assay arena), and were infested with 4 SGSB per cup. Each treatment was replicated 3-fold (1 replicate=3 beans with 4 SGSB). The assays arenas were held at 27° C. and 45% room humidity. Data were recorded after 5 days as number of insects alive and dead. Nezara viridula mortality (%) was calculated as: [(pre-treatment count−post treatment count)/pre-treatment count]×100.

[3] = system: yellow fever mosquito (Aedes aegypti); assay: Test B.3 Control of yellow fever mosquito, larvae in 96-well microtiter plates; conditions: 2 days, larval mortality
Protocol: Test Principle: Curative Ultrasonic Spraying of Larvae in Liquid Diet
For evaluating control of yellow fever mosquito (Aedes aegypti) the test unit consisted of 96-well-microtiter plates containing 200 μl of tap water per well and 5-15 freshly hatched A. aegypti larvae.
The compounds or mixtures were formulated using a solution containing 75% (v/v) water and 25% (v/v) DMSO. Different concentrations of formulated compounds or mixtures were sprayed onto the insect diet at 2.5 μl, using a custom built micro atomizer, at two replications.
as §1
After application, microtiter plates were incubated at 28±1° C., 80±5% RH for 2 days.
Larval mortality was then visually assessed.

[4] = system: boll weevil (Anthonomus grandis); assay: Test B.2 Control of boll weevil, insect diet with eggs in 24-well microtiter plates; conditions: 5 days, egg and larval mortality
Protocol: For evaluating control of boll weevil (Anthonomus grandis) the test unit consisted of 24-well-microtiter plates containing an insect diet and 20-30 A. grandis eggs.
The compounds or mixtures were formulated using a solution containing 75% (v/v) water and 25% (v/v) DMSO. Different concentrations of formulated compounds or mixtures were sprayed onto the insect diet at 20 μl, using a custom built micro atomizer, at two replications.
as §1
After application, microtiter plates were incubated at 23±1° C., 50±5% RH for 5 days.
(§2) Egg and larval mortality was then visually assessed.

[5] = system: tobacco budworm (Heliothis virescens); assay: Test B.4 Control of tobacco budworm, insect diet with eggs in 96-well microtiter plates; conditions: 5 days, egg and larval mortality
Protocol: For evaluating control of tobacco budworm (Heliothis virescens) the test unit consisted of 96-well-microtiter plates containing an insect diet and 15-25 H. virescens eggs.
The compounds or mixtures were formulated using a solution containing 75% (v/v) water and 25% (v/v) DMSO. Different concentrations of formulated compounds or mixtures were sprayed onto the insect diet at 10 μl, using a custom built micro atomizer, at two replications.
as §1
(§3) After application, microtiter plates were incubated at 28±1° C., 80±5% RH for 5 days.
as §2

[6] = system: Mediterranean fruitfly (Ceratitis capitata); assay: Test B.5 Control of Mediterranean fruitfly, insect diet with eggs in 96-well microtiter plates; conditions: 5 days, egg and larval mortality
Protocol: For evaluating control of Mediterranean fruitfly (Ceratitis capitata) the test unit consisted of 96-well-microtiter plates containing an insect diet and 50-80 C. capitata eggs.
The compounds and respective mixtures were formulated using a solution containing 75% (v/v) water and 25% (v/v) DMSO. Different concentrations of formulated compounds and mixtures were sprayed onto the insect diet at 5 μl, using a custom built micro atomizer, at two replications. For the experimental mixtures in this test identical volumes of both mixing partners at the desired concentrations respectively, were mixed together.
as §3, §2

[7] = Nezara viridula, 120 h, read-out: Average Control % [observed mortality]

## CC(C)(C)[C@]1(O)C[C@@H]2OC(=O)C[C@@]23C(=O)O[C@@H]2OC(=O)[C@H](O)[C@]213 [Bilobalid, (3aS,5aR,8aS,9R,10aR)-9-tert-butyl-8,9-dihydroxydihydro-9H-furo[2,3-b]furo[3′,2′;2,3]cyclopenta[1,2-c]furan-2,4,7(3H,8H)-trione]
[1]; 25 ppm
  Average Control %: 0%
[2]
  Average Control % [observed mortality]: 19%

## C[C@@H]1C(=O)O[C@H]2C[C@@]34[C@H]5C[C@@H](C(C)(C)C)[C@]36[C@@H](OC(=O)[C@@H]6O)O[C@@]4(C(=O)O5)[C@]21O [Ginkolide A, ginkgolide A]
[2]
  Average Control % [observed mortality]: 13%

## Cc1c(COC(=O)[C@@H]2[C@H](/C=C(\Cl)C(F)(F)F)C2(C)C)cccc1-c1ccccc1 (racemic) [Bifenthrin, bifenthrin]
[3]; 40 + 0 ppm
  Average Control %: 0%

## CN(C(=O)c1ccccc1)c1cccc(C(=O)Nc2c(Br)cc(C(F)(C(F)(F)F)C(F)(F)F)cc2C(F)(F)F)c1F [carboxamide compound of formula I]
[1]; 0.02 ppm
  Average Control %: 0%
[1]; 0.5 ppm
  Average Control %: 0%
[4]; 0.5 ppm
  Average Control %: 0%
[3]; 0 + 0.5 ppm
  Average Control %: 0%
[5]; 0.1 ppm
  Average Control %: 0%
[5]; 0.5 ppm
  Average Control %: 50%
[6]; 0 ppm (so in the source)
  Average Control %: 0%
[2]; [7]
  mortality at 1 ppm: 13%
  mortality at 10 ppm: 88%

## O=[N+]([O-])NC1=NCCN1Cc1ccc(Cl)nc1 [Imidacloprid, imidacloprid]
[4]; 10 ppm
  Average Control %: 0%
[5]; 0.4 ppm
  Average Control %: 0%
[6]; 10 ppm
  Average Control %: 25%

## O=C(NC(=O)c1c(F)cccc1F)Nc1cc(Cl)c(F)c(Cl)c1F [Teflubenzuron, teflubenzuron]
[1]; 2 ppm
  Average Control %: 0%
[5]; 50 ppm
  Average Control %: 0%
